In data set [1] the target is T1, human V1b receptor (Homo sapiens, UniProt P47901).
T1 sequence (P47901 1-424): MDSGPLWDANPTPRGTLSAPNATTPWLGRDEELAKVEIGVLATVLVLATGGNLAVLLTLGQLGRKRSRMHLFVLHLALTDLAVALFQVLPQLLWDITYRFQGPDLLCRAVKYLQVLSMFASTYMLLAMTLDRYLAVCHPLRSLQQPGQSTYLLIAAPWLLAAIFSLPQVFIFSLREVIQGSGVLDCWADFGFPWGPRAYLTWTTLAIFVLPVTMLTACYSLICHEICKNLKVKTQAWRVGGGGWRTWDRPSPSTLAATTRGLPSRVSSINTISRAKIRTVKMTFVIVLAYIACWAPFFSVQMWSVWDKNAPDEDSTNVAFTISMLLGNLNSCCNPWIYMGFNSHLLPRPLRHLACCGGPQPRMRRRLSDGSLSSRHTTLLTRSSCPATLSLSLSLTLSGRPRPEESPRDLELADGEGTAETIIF
The data set can be described thus: V1b binding assay (3H-AVP displacement, HEK-293 membranes). On the set-up: expressed in transfected cells; host or cells: HEK-293 (membranes). Conditions: for inhibition at 10 µM: 10 μM compound, read-out: V1b % Inh @10. A digest of the protocol:
(§1)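 Each well: membranes, test compound (from 10% DMSO working stock), 3H-AVP. Buffer pH 7.5 with 0.1% BSA and protease inhibitors; 1 h, room temperature. Non-specific binding: 1.25 μM AVP. Filter, wash, count.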

Another data set concerns the target T2, NPY2 receptors (Homo sapiens, UniProt P49146).
T2 construct: Cell Membranes from KAN-TS cells having NPY2 receptors; endogenous in cells; host or cells: KAN-TS cells (membranes)
T2 sequence (P49146 1-381): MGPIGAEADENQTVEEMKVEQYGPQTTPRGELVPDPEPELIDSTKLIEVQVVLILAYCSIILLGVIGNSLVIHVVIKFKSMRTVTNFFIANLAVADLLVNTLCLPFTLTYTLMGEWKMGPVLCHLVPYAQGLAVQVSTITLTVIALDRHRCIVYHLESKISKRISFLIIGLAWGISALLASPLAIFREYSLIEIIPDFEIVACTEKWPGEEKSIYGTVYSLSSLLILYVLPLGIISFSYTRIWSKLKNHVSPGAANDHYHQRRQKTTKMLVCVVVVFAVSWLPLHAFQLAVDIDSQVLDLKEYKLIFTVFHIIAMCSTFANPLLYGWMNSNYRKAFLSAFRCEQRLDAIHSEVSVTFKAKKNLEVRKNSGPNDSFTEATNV
Nature of the data set: Neuropeptide Y receptor binding assay (125I-PYY, KAN-TS cell membranes). Conditions: 10 μM compound; read-out: NPY-2@10, % Inh. In short, it runs like this: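 Membranes from KAN-TS cells competed with 125I-PYY in binding buffer containing BSA, test compound at 10 μM final, 1 hr at room temperature. Nonspecific binding defined with 1 μM PYY final. Tubes centrifuged, washed with PBS and bound radioactivity gamma-counted.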

The target of data set [2] is T3, human V2 receptor (Homo sapiens, UniProt P30518). Nature of the data set: V2 binding assay (3H-AVP displacement, HEK-293 membranes). The arrangement: expressed in transfected cells; host or cells: HEK-293 (membranes). Conditions: for inhibition at 1 µM: 1.0 μM compound, read-out: V2@1.0, % Inh; for inhibition at 10 µM: 10 μM compound, read-out: V2 % Inh @10. In short, it runs like this:
as §1

The target of data set [3] is T4, human V1a receptor (Homo sapiens, UniProt P37288). The data set can be described thus: V1a binding assay (3H-AVP displacement, HEK-293 membranes). The arrangement: expressed in transfected cells; host or cells: HEK-293 (membranes). Conditions: for inhibition at 1 µM: 1.0 μM compound, read-out: V1a@1.0, % Inh. A digest of the protocol: as §1
T4 sequence (P37288 whole entry): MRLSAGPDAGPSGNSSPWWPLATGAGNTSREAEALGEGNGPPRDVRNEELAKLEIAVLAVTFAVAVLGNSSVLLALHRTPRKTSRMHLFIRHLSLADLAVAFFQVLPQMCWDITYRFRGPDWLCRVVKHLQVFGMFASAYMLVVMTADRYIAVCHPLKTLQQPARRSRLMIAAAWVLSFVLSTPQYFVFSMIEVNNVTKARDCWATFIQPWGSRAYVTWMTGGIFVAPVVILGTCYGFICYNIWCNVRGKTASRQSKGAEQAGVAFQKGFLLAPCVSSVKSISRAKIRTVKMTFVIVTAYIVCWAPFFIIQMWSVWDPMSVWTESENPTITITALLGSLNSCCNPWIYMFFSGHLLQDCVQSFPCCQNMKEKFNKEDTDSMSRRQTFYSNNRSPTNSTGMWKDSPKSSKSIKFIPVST
For the next data set, the target named is V1a (Rattus norvegicus, UniProt P30560). As to conditions: stated in literature; cited from earlier work.
Sequence of V1a (P30560 whole entry): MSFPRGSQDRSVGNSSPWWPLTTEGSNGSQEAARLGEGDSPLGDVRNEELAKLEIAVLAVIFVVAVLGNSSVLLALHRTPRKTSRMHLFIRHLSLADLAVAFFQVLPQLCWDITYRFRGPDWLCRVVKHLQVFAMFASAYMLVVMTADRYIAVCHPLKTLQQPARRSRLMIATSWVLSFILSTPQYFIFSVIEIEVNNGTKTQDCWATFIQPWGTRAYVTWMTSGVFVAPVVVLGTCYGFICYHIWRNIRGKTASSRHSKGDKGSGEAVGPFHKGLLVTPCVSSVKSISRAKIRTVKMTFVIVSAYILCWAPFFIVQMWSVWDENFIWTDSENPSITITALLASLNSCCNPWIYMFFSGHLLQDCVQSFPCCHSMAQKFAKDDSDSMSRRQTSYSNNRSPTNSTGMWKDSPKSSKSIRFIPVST
Data set [4] addresses T4, human V1a receptor. The arrangement: expressed in transfected cells; host or cells: HEK-293. As to conditions: stated in literature; cited from earlier work.
In data set [5] the target is T4, human V1a receptor. The data set can be described thus: V1a functional assay, intracellular calcium mobilization in transfected HEK-293 cells (FLIPR). The arrangement: expressed in transfected cells; host or cells: HEK-293. As to conditions: challenge 1 nM AVP; read-out: Cell-Based Functional activity V1a IC50. As for the experimental part:
(§2) V1a, V1b or V2 Functional Assay
(§3) HEK-293 cells were grown in DMEM media supplemented with 10% FBS and glutamine (Gibco BRL, Grand Island, N.Y.). Once transfected the cells were passed biweekly by trypsinization and seeded into 96 well plates at 33,000 cells per well. HEK-293 were transfected with human V1a, V1b or V2 DNA using DMRIE-C reagent from Life Technologies, Inc., Grand Island, N.Y. Cells were tested for their responsiveness to vasopressin 48 hours after transfection. Stable lines were generated by selecting cells grown in culture media containing geneticin (500 μg/ml, Life Technologies).
(§4) Intracellular calcium mobilization was measured in HEK-293 cells transfected to express either human V1a, oxytocin or V1b receptors. Cells were plated into black 96-well Packard Clear-View plates 4 to 7 days prior to use. The cells were loaded with fluo-3 AM (Molecular Probes, Inc., Eugene, Oreg.) in buffer (25 mM Hepes, 125 mM NaCl, 1 gm/l glucose, 0.1% BSA, 5 mM KCl, 0.5 mM CaCl2, 0.5 mM MgCl2, pH 7.45) containing Pluronic (Molecular Probes) Cells were incubated with 5 μM fluo-3 AM for 1 hour shielded from light at room temperature. Intracellular fluorescence was measured using FLIPR (fluorometric imaging plate reader; Molecular Devices, Inc., Sunnyvale, Calif.). The FLIPR protocol called for images to be collected at one second intervals with 50 μl of the test compound added after the initial 10 images. An additional 70 images were then taken to detect any compound agonistic activity. FLIPR then added 50 μl of agonist peptide and collected a final 40 images for quantitating compound antagonistic activity. V1a- and V1b-expressing HEK cells were challenged with 1 nM and 0.5 nM AVP, respectively. Oxytocin-expressing HEK cells were challenged with 0.5 nM oxytocin (Peninsula Labs).
(§5) The data from the cAMP accumulation and the calcium mobilization assays are expressed as IC50 values as determined from dose response curves.
(Calcium assays in cells follow changes in intracellular calcium, usually with a dye or a luminescent sensor.)

For data set [6], the target named is T1, human V1b receptor. Nature of the data set: V1b functional assay, intracellular calcium mobilization in transfected HEK-293 cells (FLIPR). It counts as cell-based. The arrangement: expressed in transfected cells; host or cells: HEK-293. As for the experimental part: as §2, §3, §4, §5
In data set [7] the target is T3, human V2 receptor. Nature of the data set: V2 functional assay, cAMP accumulation in transfected HEK-293 cells. It counts as cell-based. The arrangement: expressed in transfected cells; host or cells: HEK-293. Conditions: HEK293; 30 μM compound; read-out: Cell-Based Functional activity V2 % Inh. @ 30. As for the experimental part: as §2, §3
The accumulation of cAMP was measured in transfected HEK-293 expressing the human V2 receptor. The cells were cultured 4-7 days in 96-well plates. On the day of assay, cells were washed twice in assay media (DMEM/F12 containing 0.1% BSA). The cells were treated with the test compound for 5 minutes and then given AVP (1 nM) in assay media containing 1 mM isobutylmethylxanthine. After 5 minutes, 0.5 N HCl was added to disrupt the cells and solubilize cAMP. The cAMP content of 20 μl of the cell lysate in each well was measured using cAMP Flashplates (NEN Life Sciences). Data are expressed as pmol cAMP/well. While the assay is optimized to detect and quantitate antagonistic activity, agonistic activity would also be apparent at the higher concentrations of test compounds.
as §5
For orientation: Changes in cAMP serve as a functional read-out for many G protein-coupled receptors.

Structures can show the parent of a compound that is named as a salt.

Results on nine molecules are retold here after patent US6653478B2, “Substituted benzimidazol-2-ones as vasopressin receptor antagonists and neuropeptide Y modulators” (Ortho-McNeil Pharmaceutical, Inc., priority 2000, dated 2003).

T3 sequence (P30518 whole entry): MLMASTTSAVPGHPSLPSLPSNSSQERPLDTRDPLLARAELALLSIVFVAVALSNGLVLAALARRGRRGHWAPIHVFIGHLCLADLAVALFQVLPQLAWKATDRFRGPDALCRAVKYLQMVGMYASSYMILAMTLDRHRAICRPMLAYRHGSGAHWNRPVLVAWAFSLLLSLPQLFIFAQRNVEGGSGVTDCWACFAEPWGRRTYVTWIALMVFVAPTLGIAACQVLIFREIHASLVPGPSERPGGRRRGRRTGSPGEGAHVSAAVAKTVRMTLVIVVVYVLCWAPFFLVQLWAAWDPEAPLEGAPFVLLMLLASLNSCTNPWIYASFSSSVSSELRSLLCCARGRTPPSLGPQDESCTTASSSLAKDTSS

`O=c1[nH]c2ccccc2n1C1CCN(C(=S)NCCc2ccc(Cl)cc2)CC1` [Compound 2] returned a melting point of 234 to 236 °C. For the same molecule, on human V1b receptor [1], the inhibition at 10 µM turned out to be 0%. For the same molecule, the inhibition at 10 µM on NPY2 receptors was 1%. Moreover, on human V2 receptor [2], the inhibition at 1 µM was determined as 7%. Further, the inhibition at 1 µM at human V1a receptor [3] was 21%.

As for `CC(=O)NCCCOc1ccc(C(=O)N2CCC(N3C(=O)CCc4ccccc43)CC2)cc1` [OPC 21268], the activity in rat result at V1a is listed as “only active in rat”. The “activity when tested for binding to human V1a receptor” value at human V1a receptor [4] is recorded as “no activity”.

Regarding `O=c1[nH]c2ccccc2n1C1CCN(C(=S)NCC(c2ccccc2)c2ccccc2)CC1` [Compound 13], the melting point lay within 230 to 233 °C. Besides, the inhibition at 10 µM on human V1b receptor [1] worked out at 1%. On NPY2 receptors, the inhibition at 10 µM was 22%. Further, the inhibition at 10 µM on human V2 receptor [2] is 4%. This molecule also displayed a 50% inhibitory concentration (IC50) at human V1a receptor [3] of 1200 nM.

`O=c1[nH]c2ccccc2n1C1CCN(C(=S)Nc2ccccc2)CC1` [Compound 3] showed a melting point of 250 to 252 °C. Moreover, the inhibition at 10 µM on human V1b receptor [1] amounted to 0%. The inhibition at 10 µM on NPY2 receptors amounted to 13%. At human V2 receptor [2], the inhibition at 1 µM was 7%. Also, at human V1a receptor [3], the inhibition at 1 µM is 0%.

For the molecule `O=c1[nH]c2ccccc2n1C1CCN(C(=S)NCc2ccccc2Cl)CC1` [Compound 12], the melting point lay in the range of 181 to 184 °C. On human V1b receptor [1], the inhibition at 10 µM worked out at 0%. Also, at NPY2 receptors, the inhibition at 10 µM came to 21%. Besides, the inhibition at 10 µM on human V2 receptor [2] was 5%. The same molecule registered an IC50 on human V1a receptor [3] of 2500 nM.

`COC(=O)[C@@H](Cc1ccccc1)NC(=S)N1CCC(n2c(=O)n(CCCNC(=N)N)c3ccccc32)CC1` [Compound 58]: the IC50 at human V1a receptor [5] stood at 1430 nM. Moreover, the inhibition at 30 µM at human V1b receptor [6] (HEK293, 30 μM compound, read-out: Cell-Based Functional activity V1b % Inh. @ 30) was 0%; on human V2 receptor [7], 0%. In addition, the inhibition at 10 µM at NPY2 receptors was found to be 2%. The inhibition at 1 µM at human V1a receptor [3] is 52%.

The molecule `COc1ccc(NC(=S)N2CCC(n3c(=O)[nH]c4ccccc43)CC2)cc1` [Compound 5] came in with a melting point of 238 to 243 °C. Besides, the inhibition at 10 µM at human V1b receptor [1] came out at 8%. In addition, the inhibition at 10 µM at NPY2 receptors was 14%. The inhibition at 1 µM on human V2 receptor [2] amounted to 34%. In addition, the inhibition at 1 µM on human V1a receptor [3] is 38%.

As for `NCCn1c(=O)n(C2CCN(C(=S)NC(c3ccccc3)c3ccccc3)CC2)c2ccccc21` [Compound 63, 1-[(N1-Piperidinocarbothioyldiphenylmethylamino)-4-yl]-3-(2-aminoethyl)-1,3-dihydrobenzimidazol-2-one Hydrochloride], the concentration for half-maximal inhibition (IC50) on human V1a receptor [5] was determined as 310 nM; on human V1b receptor [6] (challenge 0.5 nM AVP, read-out: Cell-Based Functional activity V1b IC50), 8.06 µM; on human V1b receptor [1] it was 4.7 µM; at human V1a receptor [3], 50 nM. The inhibition at 10 µM on human V1b receptor [1] was 74%; at NPY2 receptors, 94%. For the same molecule, on human V2 receptor [2], the inhibition at 1 µM was determined as 42%.

The molecule `NCCCn1c(=O)n(C2CCN(C(=S)NC(c3ccccc3)c3ccccc3)CC2)c2ccccc21` (as salt: hydrochloride) [Compound 55, 1-[(N1-Piperidinocarbothioyldiphenylmethylamino)-4-yl]-3-(3-aminopropyl)-1,3-dihydrobenzimidazol-2-one Monohydrochloride] came in with a melting point of 189 to 190 °C.

By melting point is commonly meant the temperature, or range, at which the solid turns liquid. The term IC50 denotes the concentration that inhibits the measured activity by half.
